These results are taken from PubChem BioAssay (NCI).

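Grown in 96-well plates, cells were treated for 48 hours with each compound at five concentrations. Insufficient inhibition: endpoint recorded as highest concentration tested. At the GI50, growth is halved. TGI: total growth inhibition.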 A value given as a limit tells only on which side of the number the result lay.

Holding throughout (assay): DTP human tumour cell line panel, 48 h
The test system of test [1] is RXF 393 renal.
Test [2] has as its system T-47D breast.
The test system of test [3] is SW-620 colon.
Test [4] deals with CCRF-CEM leukemia.
Test [5] concerns A498 renal.
Test [6] relates to IGROV1 ovarian.
Test [7] relates to SK-OV-3 ovarian.
In test [8] the test system is SNB-19 CNS.

On to `CCN(CC)CCCC(C)Nc1c(C)cnc2cc(Cl)c(C)cc12` (stereo not drawn), for which the GI50 (usually the concentration that inhibits growth by half) in test [1] is 8.75 µM; in test [2], 22.9 µM; in test [3], 10.6 µM; in test [4], 8.66 µM; in test [5], 16.6 µM; in test [6] it was 25.9 µM. In addition, the GI50 in test [7] is 23.2 µM; in test [8], 17.7 µM. In addition, the concentration for total growth inhibition (TGI) (usually the concentration giving total growth inhibition) in test [1] is 26.6 µM; in test [2] it was more than 61.7 µM; in test [3], 25.7 µM; in test [4] it was 34.8 µM; in test [5] it was 31.4 µM; in test [6], 74.7 µM. The concentration for total growth inhibition (TGI) was more than 58 µM in test [7] and 50.6 µM in test [8].
On to `NC(=S)N/N=C/c1ccc(OC(=O)COc2ccc(Cl)cc2)cn1`, for which the GI50 is 5.48 µM in test [1]; 8.62 µM in test [2]; 3.29 µM in test [3]; 2.73 µM in test [4]; 11.9 µM in test [5]; 16.4 µM in test [6]. Besides, the values for the GI50 in test [7] and in test [8] were 40 µM and 20.9 µM, respectively. Also, the total growth inhibition concentration (TGI) in test [1] is more than 100 µM; in test [2], more than 100 µM; in test [3] it was more than 100 µM; in test [4], more than 100 µM; in test [5], 71 µM; in test [6], more than 100 µM. Moreover, the concentration for total growth inhibition (TGI) in test [7] and in test [8] was more than 100 µM throughout.
Consider `COC(=O)Nc1nc2ccc(Oc3ccc(NC(=O)Nc4ccccc4)cc3)cc2[nH]1`, for which the GI50 was 0.069 µM in test [1]; 0.131 µM in test [2]; 0.101 µM in test [3]; 0.123 µM in test [4]; 0.141 µM in test [5]; 0.665 µM in test [6]. Further, the 50% growth inhibitory concentration (GI50) in test [7] was 0.0696 µM; in test [8] it was 0.183 µM. Further, the TGI in test [1] was 0.533 µM; in test [2], 21.7 µM; in test [3] it was more than 10.2 µM; in test [4], more than 8.59 µM; in test [5], 4.97 µM; in test [6], more than 10.9 µM. The TGI is 0.3 µM in test [7] and more than 17 µM in test [8].
Regarding `Clc1nc(Cl)c2ncn(Cc3cccc(COc4cccc(OCc5cccc(Cn6cnc7c(Cl)nc(Cl)nc76)c5)c4)c3)c2n1`, the GI50 in test [1] is 7.2 µM; in test [2], 25.8 µM; in test [3] it was more than 100 µM; in test [4] it was 5.24 µM; in test [5], more than 100 µM; in test [6] it was 60.8 µM. In addition, the GI50 in test [7] and in test [8] was more than 100 µM each time. Further, the TGI in test [1], in test [2], in test [3], in test [4], in test [5] and in test [6] was more than 100 µM in each case. For the same molecule, the TGI in test [7] and in test [8] was more than 100 µM each time.
With `O=C(O)CC1OCC=C2CN3CCC45c6ccccc6NC4C1C2CC35` (stereo not drawn), the total growth inhibition concentration (TGI) in test [1], in test [2], in test [3], in test [4], in test [5] and in test [6] was more than 100 µM in each case. In addition, the concentration for total growth inhibition (TGI) in test [7] and in test [8] was more than 100 µM throughout.
As to `COc1cc(C2=NN(C(C)=O)C(c3ccc(OC(C)=O)cc3OC(C)=O)O2)c(OC(C)=O)c2ccccc12` (stereo not drawn), the GI50 in test [1] was 1 µM; in test [2], 1.12 µM; in test [3], 0.608 µM; in test [4] it was 0.338 µM; in test [5] it was 1.59 µM; in test [6] it was 0.82 µM. Further, the GI50 in test [7] was 0.649 µM; in test [8], 1.19 µM. The TGI in test [1] amounted to 12.5 µM; in test [2] it was 9.97 µM; in test [3] it was 27.5 µM; in test [4] it was 8.03 µM; in test [5], 11.6 µM; in test [6], 42.6 µM. For the same molecule, the results for the total growth inhibition concentration (TGI) in test [7] and in test [8] were 19.7 µM and more than 75.3 µM, respectively.
With `CC1CN1CC(O)C(O)CN1CC1C` (stereo not drawn), the GI50 was 2.04 µM in test [1]; 2.87 µM in test [2]; 2.47 µM in test [3]; 1.41 µM in test [4]; 3.61 µM in test [5]; 4.09 µM in test [6]. Moreover, the GI50 in test [7] is 6.11 µM; in test [8], 6.21 µM. Moreover, the concentration for total growth inhibition (TGI) in test [1] was 8.77 µM; in test [2], more than 71.4 µM; in test [3], more than 62 µM; in test [4], more than 100 µM; in test [5] it was 16.8 µM; in test [6], 42.2 µM. Besides, the TGI in test [7] and in test [8] was more than 100 µM each time.
For `CCS(=O)(=O)c1ccc(OC)c(Nc2ncc(-c3cccc(OC)c3)o2)c1`, the GI50 was 5.83 µM in test [1]; 8.18 µM in test [2]; 9.09 µM in test [3]; 10.7 µM in test [4]; 0.728 µM in test [5]; 6.8 µM in test [6]. For the same molecule, the GI50 in test [7] is 9.92 µM; in test [8] it was 12 µM. Also, the total growth inhibition concentration (TGI) in test [1] was 19.7 µM; in test [2], more than 25 µM; in test [3], more than 25 µM; in test [4], more than 25 µM; in test [5], 4.28 µM; in test [6], more than 20.7 µM. For the same molecule, the TGI in test [7] and in test [8] was more than 25 µM each time.
As to `CCC#CC[C@H]1C/C=C2/C(=O)C=C[C@@H]2C/C=C\CCCC(=O)O1`, the GI50 in test [1] is 0.945 µM; in test [2], 1.35 µM; in test [3], 0.642 µM; in test [4] it was 0.791 µM; in test [5], 1.08 µM; in test [6] it was 1.47 µM. The GI50 is 2.36 µM in test [7] and 1.48 µM in test [8]. For the same molecule, the TGI came out at 1.96 µM in test [1]; 10.2 µM in test [2]; 4.15 µM in test [3]; 5 µM in test [4]; 2.49 µM in test [5]; 4.33 µM in test [6]. The results for the TGI in test [7] and in test [8] were 7.74 µM and 7.02 µM, respectively.
Regarding `CCN1C(=O)CNc2ncc(-c3ccc(-c4ncn[nH]4)nc3C)nc21`, the GI50 in test [1] was 0.0476 µM; in test [2], 0.0169 µM; in test [3], 0.439 µM; in test [4], 0.215 µM; in test [5] it was 0.013 µM; in test [6], 0.045 µM. For the same molecule, the results for the GI50 in test [7] and in test [8] were 0.102 µM and 0.337 µM, respectively. The TGI in test [1] was 0.371 µM; in test [2], 0.185 µM; in test [3], 12.1 µM; in test [4], more than 34.8 µM; in test [5] it was 0.0613 µM; in test [6] it was 0.606 µM. The results for the total growth inhibition concentration (TGI) in test [7] and in test [8] were 0.617 µM and 6.9 µM, respectively.
For `COc1cc(NC(=O)c2cc(O)c(CC=C(C)C)c(O)c2)cc2c1O[C@]1(C)CC[C@@H](O)C(C)(C)[C@H]1C2`, the GI50 in test [1] was 0.434 µM; in test [2] it was 2.44 µM; in test [3] it was 3.09 µM; in test [4], 2.21 µM; in test [5], 1.21 µM; in test [6], 7.51 µM. For the same molecule, the values for the GI50 in test [7] and in test [8] were 4.72 µM and 3.68 µM, respectively. Further, the TGI in test [1] is 2.34 µM; in test [2], 22.6 µM; in test [3] it was 13.8 µM; in test [4] it was more than 100 µM; in test [5], 7.94 µM; in test [6] it was 54.9 µM. Besides, the TGI in test [7] was found to be 28.8 µM; in test [8] it was 21 µM.
For the molecule `COc1ccc(OC)c(/C=C/C(=O)N/N=C/c2ccc(Cl)cc2)c1`, the GI50 is 0.0363 µM in test [1]; 0.0786 µM in test [2]; 0.0577 µM in test [3]; 0.141 µM in test [4]; 0.111 µM in test [5]; 0.123 µM in test [6]. The 50% growth inhibitory concentration (GI50) in test [7] is 0.0928 µM; in test [8], 0.159 µM. Further, the concentration for total growth inhibition (TGI) in test [1] is 0.268 µM; in test [2] it was more than 65.8 µM; in test [3] it was more than 100 µM; in test [4] it was more than 100 µM; in test [5], 36.6 µM; in test [6], more than 79.3 µM. Also, the figures for the concentration for total growth inhibition (TGI) in test [7] and in test [8] were 9.81 µM and more than 100 µM, respectively.
For `CCOC(=O)Sc1ncnc2nc[nH]c12`, the GI50 in test [1] was 15.1 µM; in test [2], 0.799 µM; in test [3], 3.89 µM; in test [4] it was 0.629 µM; in test [5] it was 14.4 µM; in test [6] it was 6.69 µM. Also, the GI50 is 0.484 µM in test [7] and 85 µM in test [8]. The concentration for total growth inhibition (TGI) in test [1] is more than 100 µM; in test [2] it was more than 100 µM; in test [3], more than 100 µM; in test [4] it was 13.4 µM; in test [5] it was more than 100 µM; in test [6], more than 100 µM. Further, the TGI in test [7] and in test [8] was more than 100 µM throughout.
For the molecule `CCc1[nH]c(=O)nc(N)c1-c1ccc(N2CCCCC2)c([N+](=O)[O-])c1`, the concentration for total growth inhibition (TGI) in test [1], in test [2], in test [3], in test [4], in test [5] and in test [6] was more than 100 µM in each case. The TGI in test [7] and in test [8] was more than 100 µM throughout.
